Data: ChEMBL document CHEMBL1201862, “PubChem BioAssay data set” (2004)
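Cells were grown in 96-well plates and exposed to each compound for 48 hours at five concentrations; endpoints were interpolated linearly between bracketing concentrations, or set to the highest concentration if not reached. GI50: concentration for 50% inhibition of growth.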 Activity calls are given as the source filed them. No stated cut-off is given here; in the data, active = GI50 up to about 1.1 µM and inactive = higher.

Columns and labels:
Experiment in all cases: growth of human tumour cells (NCI), 48 h
[1] = tested on: SK-MEL-28
[2] = tested on: CCRF-CEM
[3] = tested on: DU-145
[4] = tested on: Malme-3M
[5] = tested on: A549
[6] = tested on: SK-OV-3
[7] = tested on: TK-10
[8] = tested on: KM12
[9] = tested on: HL-60
[10] = tested on: BT-549
[11] = tested on: SNB-75
[12] = tested on: SF-295
[13] = tested on: A498
[14] = tested on: 786-0
[15] = tested on: ACHN
[16] = tested on: T47D
[17] = tested on: SF-539
[18] = tested on: U-251
[19] = tested on: NCI-H522
[20] = tested on: SN12C
[21] = tested on: NCI-H23
[22] = tested on: HCC 2998
[23] = tested on: SW-620
[24] = tested on: SNB-19
[25] = tested on: MOLT-4
[26] = tested on: HOP-92
[27] = tested on: RXF 393
[28] = tested on: HOP-62
[29] = tested on: HT-29
[30] = tested on: LOX IMVI
[31] = tested on: PC-3
[32] = tested on: NCI/ADR-RES
[33] = tested on: MDA-MB-435
[34] = tested on: NCI-H460
[35] = tested on: OVCAR-8
[36] = tested on: SK-MEL-5
[37] = tested on: IGROV-1
[38] = tested on: OVCAR-4
[39] = tested on: MDA-N
[40] = tested on: MDA-MB-231
[41] = tested on: UACC-62
[42] = tested on: NCI-H226
[43] = tested on: SK-MEL-2
[44] = tested on: OVCAR-3
[45] = tested on: OVCAR-5
[46] = tested on: CAKI-1
[47] = tested on: SR
[48] = tested on: COLO 205
[49] = tested on: MCF7
[50] = tested on: SF-268
[51] = tested on: HCT-15
[52] = tested on: UO-31
[53] = tested on: HCT-116
[54] = tested on: Hs-578T
[55] = tested on: K562
[56] = tested on: RPMI-8226
[57] = tested on: EKVX
[58] = tested on: M14
[59] = tested on: UACC-257

Measured: GI50

O=C(NNc1ccccc1)c1ccc(Cl)c(Cl)c1
active: [8] 0.114 µM | [9] 0.0569 µM | [12] 0.0676 µM | [16] 0.918 µM | [17] 0.0718 µM | [19] 0.574 µM | [23] 0.108 µM | [30] 0.0438 µM | [33] 0.206 µM | [34] 0.219 µM | [39] 0.122 µM | [41] 0.0667 µM | [43] 0.875 µM | [46] 0.259 µM | [48] 0.169 µM | [49] 0.585 µM | [55] 0.0281 µM | [56] 0.603 µM | [58] 0.324 µM
15.5 µM: [51]
inactive: [1] > 100 µM | [2] 1.12 µM | [3] 26.9 µM | [4] 18.6 µM | [5] 6.59 µM | [6] 21.1 µM | [7] 20.7 µM | [10] 6.81 µM | [11] 25.8 µM | [13] 5.2 µM | [14] 41 µM | [15] 11.3 µM | [18] 18.2 µM | [20] 27.9 µM | [21] 34.4 µM | [22] 2.31 µM | [24] 25.8 µM | [25] 21.5 µM | [26] > 78.9 µM | [27] 19.3 µM | [28] 54.6 µM | [29] 15.7 µM | [31] 25.2 µM | [32] 5.25 µM | [35] 21.2 µM | [36] 1.3 µM | [37] 13.2 µM | [38] 16.2 µM | [40] 35.6 µM | [42] 29.9 µM | [44] 4.7 µM | [45] 57 µM | [47] 20.3 µM | [50] 1.45 µM | [52] 2.44 µM | [53] 14 µM | [54] 28.5 µM | [57] 4.39 µM

CCC/C(Cl)=N/OC(=O)Nc1cccc(F)c1
inactive: [1] 5.12 µM | [3] 17.5 µM | [4] 1.73 µM | [5] 19.1 µM | [6] 17.3 µM | [7] 2.38 µM | [8] 15.7 µM | [9] 1.28 µM | [10] 2.32 µM | [11] 3.4 µM | [12] 17.5 µM | [13] > 10 µM | [14] 1.69 µM | [15] 1.55 µM | [16] 2.71 µM | [59] 14.8 µM | [18] 17.3 µM | [20] 6.75 µM | [21] 16.7 µM | [22] 15.6 µM | [23] 1.8 µM | [24] 17.9 µM | [25] 1.89 µM | [26] 1.6 µM | [27] 3.23 µM | [28] 16.4 µM | [29] 4.91 µM | [30] 1.91 µM | [31] 17 µM | [32] 6.04 µM | [33] 11.9 µM | [34] 19 µM | [35] 16 µM | [36] 5.79 µM | [37] 13.2 µM | [38] 9.79 µM | [39] 9.46 µM | [40] 13.1 µM | [41] 14.4 µM | [42] 14.6 µM | [43] 18.7 µM | [44] 2.61 µM | [45] 19.1 µM | [46] 3.33 µM | [48] 2.19 µM | [49] 2.77 µM | [50] 21.7 µM | [52] 8.97 µM | [53] 4.19 µM | [54] 9.75 µM | [56] 1.96 µM | [57] 2.46 µM | [58] 3.94 µM
active: [2] 0.526 µM | [19] 0.309 µM | [47] 0.453 µM | [55] 1.08 µM
1.85 µM: [51]

COc1ccc2cc(-c3ccc(OC)c(OC)c3)c(=O)oc2c1
> 100 µM: [51]
inactive: [1] > 100 µM | [2] > 100 µM | [3] > 100 µM | [4] > 100 µM | [5] > 100 µM | [6] > 100 µM | [7] > 100 µM | [8] > 100 µM | [9] > 100 µM | [10] > 100 µM | [12] 53.1 µM | [13] 96.8 µM | [14] 52 µM | [15] > 100 µM | [16] > 100 µM | [59] > 100 µM | [17] > 100 µM | [18] 57.4 µM | [19] > 100 µM | [20] > 100 µM | [21] > 100 µM | [22] > 100 µM | [23] > 100 µM | [24] 40 µM | [25] > 100 µM | [26] > 100 µM | [27] 21.4 µM | [28] 69.5 µM | [29] > 100 µM | [30] > 100 µM | [31] > 100 µM | [32] > 100 µM | [33] > 100 µM | [34] > 100 µM | [35] > 100 µM | [36] > 100 µM | [37] > 100 µM | [38] > 100 µM | [39] > 100 µM | [40] 48.6 µM | [41] > 100 µM | [42] > 100 µM | [43] > 100 µM | [44] > 100 µM | [45] > 100 µM | [46] > 100 µM | [47] > 100 µM | [48] > 100 µM | [49] > 100 µM | [50] 62.1 µM | [52] > 100 µM | [53] > 100 µM | [54] 29.3 µM | [55] > 100 µM | [56] > 100 µM | [57] > 100 µM | [58] > 100 µM
